According to PubChem BioAssay (NCI):
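Results reflect a 48-hour exposure of cells in 96-well plates to compound at five concentrations. TGI: total growth inhibition.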 Where a SMILES comes first, the peptide text is derived from it. [ ]: non-standard residue; d: D form. The star is where a group is joined. ξ: configuration not given here. NMeF = CN[CH](Cc1ccccc1)C(=O)O; ξNMe2Val = CC(C)C(C(=O)*)N(C)C; NMeV = CN[CH](C(=O)O)C(C)C; OtBu = CC(C)(C)O*

Experiments:
Experiment in all cases: DTP human tumour cell line panel, 48 h
OVCAR-5 ovarian = tested on: OVCAR-5 ovarian
A498 renal = tested on: A498 renal
HCT-116 colon = tested on: HCT-116 colon
IGROV1 ovarian = tested on: IGROV1 ovarian
HCT-15 colon = tested on: HCT-15 colon
SF-295 CNS = tested on: SF-295 CNS
LOX IMVI melanoma = tested on: LOX IMVI melanoma
HOP-62 NSCLC = tested on: HOP-62 NSCLC
MALME-3M melanoma = tested on: MALME-3M melanoma
RPMI-8226 leukemia = tested on: RPMI-8226 leukemia

Row | SMILES | TGI (OVCAR-5 ovarian) | TGI (A498 renal) | TGI (HCT-116 colon) | TGI (IGROV1 ovarian) | TGI (HCT-15 colon) | TGI (SF-295 CNS) | TGI (LOX IMVI melanoma) | TGI (HOP-62 NSCLC) | TGI (MALME-3M melanoma) | TGI (RPMI-8226 leukemia)
1 | O=c1[nH]c2ccc(CC(=S)N3CCOCC3)cc2o1 | > 100 µM | > 100 µM | > 100 µM | > 100 µM | > 100 µM | > 100 µM | > 100 µM | > 100 µM | > 100 µM | –
2 | NC(=O)/N=C/c1c(O)c2ccccc2oc1=O | > 100 µM | – | > 100 µM | > 100 µM | > 100 µM | > 100 µM | > 100 µM | > 100 µM | – | > 100 µM
3 | CC(C)C(C(=O)N(C)C(Cc1ccccc1)C(=O)N(C)C(C(=O)N(C)C(C(=O)N1CCCC1C(=O)OC(C)(C)C)C(C)C)C(C)C)N(C)C (configuration not stated) (ξNMe2Val-[NMeF][NMeV][NMeV]P-OtBu; configuration not given here) | – | – | > 100 µM | > 100 µM | > 100 µM | > 100 µM | 55.5 µM | > 100 µM | – | > 100 µM
4 | CCCCCCCCCCCC[N+]12CC[N+](C)(CC1)CC2 | 41 µM | – | > 100 µM | 11.8 µM | – | > 100 µM | 43 µM | > 100 µM | > 100 µM | 41.7 µM
5 | CCN(C(=O)N[C@H](C(=O)N[C@@H](CSC)C(=O)N[C@@H](C)C(=O)OC)C(C)C)c1ccccc1 | 29.5 µM | – | 30.9 µM | 23.9 µM | 36.2 µM | 36.7 µM | 23.5 µM | 36.4 µM | 26.6 µM | –
6 | CSC(C1c2ccccc2N(C)c2[nH]c(=O)n(C)c(=O)c21)S(=O)(=O)c1ccc(C)cc1 (configuration not stated) | > 100 µM | > 100 µM | > 100 µM | > 100 µM | > 100 µM | > 100 µM | > 100 µM | > 100 µM | > 100 µM | –
7 | CC#CCCCC1(C)CCNC1=S (configuration not stated) | > 10 µM | – | – | – | > 10 µM | > 10 µM | > 10 µM | – | > 10 µM | –
8 | COC(=O)C(CCC1(C)OCCO1)=[N+]=[N-] | > 100 µM | > 100 µM | > 100 µM | > 100 µM | > 100 µM | > 100 µM | > 100 µM | > 100 µM | > 100 µM | –
9 | Cc1cc(C)n(-c2nc(C)c(CCO)c(=O)[nH]2)n1 | > 100 µM | – | > 100 µM | > 100 µM | > 100 µM | > 100 µM | > 100 µM | > 100 µM | > 100 µM | > 100 µM
10 | O=S(=O)(/N=C(\NO)Nc1ccc(Cl)cc1)c1cc2ccccc2s1 | 29.5 µM | – | 30.2 µM | 28.7 µM | 36 µM | 41 µM | 33.5 µM | 34.8 µM | 29.6 µM | –
11 | O=C1Nc2ccc(Cl)c(I)c2C1=O | 34.1 µM | – | 28.8 µM | 30.9 µM | 43.7 µM | 32.3 µM | 35.1 µM | 34.8 µM | 34.8 µM | –
12 | CCOC(=O)N1CCC2(CC1)C[C@@](C(C)=O)(c1ccccc1)C(C)O2 (some centres not stated) | > 100 µM | > 100 µM | – | > 100 µM | > 100 µM | > 100 µM | > 100 µM | > 100 µM | > 100 µM | > 100 µM
